We go through 2 compounds from patent US20250327028A1, “ENGINEERED PLATELETS AS TARGETED PROTEIN DEGRADERS” (Wisconsin Alumni Research Foundation, priority 2024, published 2025).

One test relates to WT MDA-MB-231 cells. The test can be described thus: Colocalization between internalized NeutrAvidin and lysosome marker LAMP1. It counts as cell-based, human. The following applies: HAC-B 5 μM, NA-647 0.5 μM 1 h. Here is the method:
Colocalization between internalized NeutrAvidin™ and lysosome maker: 5×10^4 WT MDA-MB-231 cells were seeded in a confocal dish and cultured for 24 h at 37° C. Then, the cells were treated with free HAC-B at 5 μM for 2 h. Next, the drug-containing medium was removed, and PBS was used to wash the cells twice, followed by incubating the cells in the blank medium containing NA-647 at 0.5 μM for 1 h. Subsequently, the cells were washed with PBS twice and fixed with 4% PFA at room temperature for 20 min. Subsequently, the cell sample was treated with the permeabilization solution (0.5% Triton™ X-100 in PBS) at room temperature for another 20 min, followed by incubation with the blocking buffer (1% BSA in PBS) at room temperature for 1 h. The cell sample was incubated with the rabbit anti-LAMP1 antibody (Cell Signaling Technology/9091T) overnight at 4° C., followed by the incubation with the Alexa Fluor®488-conjugated anti-rabbit IgG H & L secondary antibodies at room temperature for 2 h. After staining with Hoechst 33342, the cells were subjected to Leica SP8 Confocal WLL STED microscopy for observation.

For test [1], the system named is HSP90. The test can be described thus: Quantification of biotin-labeled contents in platelets (biotin quantitation kit). It counts as cell-based, BALB/c mice. The following applies: 2 h. Here is the method:
The fresh platelets were incubated with HAC-B at 2.5, 5, 10, 20, and 40 μM for 2 h, and the corresponding lysates were collected using the IP lysis buffer containing PMSF and phosphatase inhibitor cocktail. The biotin-labeled contents in each lysate supernatant were quantified by the QuantTag™ biotin quantitation kit, and the relevant engineering efficiency was calculated based on dividing the amount of biotin-labeled contents by the HAC-B amount added.

Test [2] has as its system HSP90. Kind of test: HAC-B-mediated HSP90 labeling, streptavidin-mediated immunoblot analysis. Format: cell-based, murine. The following applies: 4T1 cells, 2 h. The method, then: Identification of HAC-B-mediated HSP90 labeling: Streptavidin-mediated immunoblot analysis: 4T1 cells were seeded in 6-well culture plates with a density of 5×10^4 cells in each well and cultured for 24 h. Following washing with PBS twice, the cells were treated with free HAC-B at the indicated concentrations for 2 h. Then, the cells were washed with PBS and lysed on ice with the RIPA buffer containing PMSF (1 mM) and the phosphatase inhibitor cocktail for 30 min. Next, the lysates were centrifuged at 10,000 g for 10 minutes at 4° C., and the corresponding supernatants were collected, followed by quantification of the total proteins in the supernatant through the BCA assay. Subsequently, the proteins in the supernatant were mixed with ¼ volume of 5× sample buffer formulated by Tris-HCl (pH 6.8, 312.5 mM), sucrose (25%), SDS (10%), bromophenol blue (0.025%), and DTT (250 mM). After incubation for 1 h at room temperature, equal amounts of proteins from different samples ([…]) were loaded into the 10% Bis-Tris gel. The separated proteins were transferred to PVDF membrane before the membranes were blocked with 5% nonfat milk in PBS-T. The PVDF membrane was incubated with streptavidin-HRP at room temperature for 2 h. […] Finally, the bands were treated with ECL western blot substrate and detected by the iBright™ imaging system.

The next test concerns the target T1, BRD4 (Mus musculus, UniProt Q9ESU6).
T1 construct: endogenous in cells; host or cells: 4T1
Kind of test: Immunoblot analysis of BRD4 degradation in 4T1 cells after free HAC treatment. It counts as cell-based, murine. The source says:
Immunoblot analysis: Immunoblot analysis was used to evaluate the expression of BRD4, HSP90, HSP90a, and PD-L1 in 4T1, WT MDA-MB-231, HSP90α-KO MDA-MB-231 or PEA-10 cells after various treatments and also served as the detection method for IP or co-IP experiments. The procedures for preparing IP or co-IP samples were indicated in the relevant experimental parts.
Sample preparation for various cancer cells after free HAC treatment: Various cells, including 4T1, WT MDA-MB-231, HSP90α-KO MDA-MB-231, or PEA-10 cells, were seeded in 6-well culture plates with a density of 5×10^4 cells in each well and cultured for 24 h. Then, if HAI pretreatment was performed, the cells were incubated in the HAI-containing blank medium at different concentrations for 2 h and washed with PBS twice before the following treatments. The medium in the corresponding wells was replaced with 1 mL of blank medium containing the DMSO vehicle, HACs, or the combinations of various free ligands at the predetermined concentrations. After incubation for the indicated time points, cells were washed with PBS and lysed on ice with the relevant lysis buffer containing PMSF (1 mM) and the phosphatase inhibitor cocktail for 30 min. As for the conditioned medium (CM), the culturing complete medium of the corresponding cancer cells in each well was collected after 24-h incubation and subjected to centrifugation at 2000 rpm for 5 min to obtain the supernatant. The filtrate of the supernatants was collected following filtration over a 0.45 μm filter, serving as the CM. Regarding the cell samples for BRD4 detection, the lysis buffer containing HEPES-KOH (pH=7.5, 10 mM), NaCl (500 mM), EDTA (5 mM), NP-40 (1%), and SDS (0.1%) was used with the indicated PMSF and phosphatase inhibitor cocktail. As for PD-L1 detection, RIPA buffer (Thermo Fisher Scientific/J63306.AP) was used with the indicated PMSF and phosphatase inhibitor cocktail.
General procedures for immunoblot analysis: After a 30-min lysis, the lysates were centrifuged at 10,000 g for 10 minutes at 4° C., and the corresponding supernatants were collected, followed by quantification of the total proteins in the supernatant through the BCA assay. Afterward, the proteins in the supernatant were mixed with the loading buffer and heated at 95° C. for 15 min. Equal amounts of proteins from different samples ([…]) were loaded into the Bis-Tris gel formulated with Bis-Tis buffer, 30% acrylamide/Bis, 10% ammonium persulfate (APS) solution, and TEMED. The separated proteins were transferred to polyvinylidene fluoride (PVDF) membranes before the membranes were blocked with 5% nonfat milk in PBS-T. Next, the PVDF membranes were incubated with primary antibodies overnight at 4° C., if necessary, followed by the incubation with the goat-anti-rabbit IgG H & L (HRP) secondary antibodies at room temperature for 2 h. Finally, the bands were treated with electrochemiluminescence (ECL) western blot substrate, detected by the iBright™ imaging system and quantified with ImageJ software. 8% Bis-Tris gels were used for BRD4 detection, and 10% gels were adopted to analyze PD-L1.

In the case of `N#CCN(C(=O)CCCC[C@@H]1SC[C@@H]2NC(=O)N[C@@H]21)S(=O)(=O)c1ccc(C(=O)NCCCn2c(Sc3cc4c(cc3I)OCO4)nc3c(N)ncnc32)cc1` [HAC-B, N-(3-(6-amino-8-((6-iodobenzo[d][1,3]dioxol-5-yl)thio)-9H-purin-9-yl)propyl)-4-(N-(cyanomethyl)-N-(5-((3aS,4S,6aR)-2-oxohexahydro-1H-thieno[3,4-d]imidazol-4-yl)pentanoyl)sulfamoyl)benzamide], in the test with WT MDA-MB-231 cells, the “distribution of internalized NA-647 relative to lysosome marker LAMP1” value is reported as “mainly overlapped with the lysosome maker, LAMP1”. In addition, in the test on HSP90 [1], the “HAC-B concentration at which biotin-labeled content inside platelets reaches a peak” value was 20 µM. For the same compound, the “concentration that labels HSP90 with higher efficiency” value in the test with HSP90 [2] is “over 0.8 μM”. The “biotin labeling of HSP90 (detected by HRP-streptavidin)” value in the test on HSP90 [2] (various concentrations) is on record as “modified HSP90 within 2 h in a concentration-dependent manner”.

For `Cc1sc2c(c1C)C(c1ccc(Cl)cc1)=N[C@@H](CC(=O)NCc1cn(CCCC(=O)N(CC#N)S(=O)(=O)c3ccc(C(=O)NCCCn4c(Sc5cc6c(cc5I)OCO6)nc5c(N)ncnc54)cc3)nn1)c1nnc(C)n1-2` [iHAC, (S)—N-(3-(6-amino-8-((6-iodobenzo[d][1,3]dioxol-5-yl)thio)-9H-purin-9-yl)propyl)-4-(N-(4-(4-((2-(4-(4-chlorophenyl)-2,3,9-trimethyl-6H-thieno[3,2-f][1,2,4]triazolo[4,3-a][1,4]diazepin-6-yl)acetamido)methyl)-1H-1,2,3-triazol-1-yl)butanoyl)-N-(cyanomethyl)sulfamoyl)benzamide], the “BRD4 degradation in presence of proteasome inhibitor epoxomicin (Epox)” value at BRD4 (4T1 and WT MDA-MB-231 cells (FIGS. 2K, 2L), lower or higher effective concentrations) was “rescue effect induced by proteasome inhibitor epoxomicin (Epox)”. Moreover, at BRD4 (4T1 cells, 24 h), the “higher effective concentration that efficiently reduces BRD4 expression” value amounted to 20 µM and the “lower effective concentration that efficiently reduces BRD4 expression” value was 0.16 µM. Further, on BRD4 (4T1 cells, at the two effective concentrations), the “time dependence of BRD4 downregulation” value is “in a time-dependent manner”. Besides, the “shape of concentration response of BRD4 degradation” value on BRD4 (4T1 cells, at relatively lower concentrations, reversed at 20 μM) is recorded as “hook effect”.
